Source: US20110053897A1 (IRM LLC, priority 2009, published 2011)
Read-outs that look alike come from different tables or passages of the source.

Biological target: T1, Syk kinase (Homo sapiens, UniProt P43405)
T1 construct: purchased
Experiment: Syk kinase inhibition, Caliper LabChip off-chip mobility-shift kinase assay
Type: biochemical
Conditions: read-out: Syk Enzyme IC50
Procedure: Compounds of the examples and Table 1 provided herein were assayed to measure their capacity to inhibit Syk kinase.
Compounds of the examples and Table 1 provided herein were assessed for their ability to inhibit Syk kinase by utilizing Caliper Life Sciences' proprietary LabChip™ technology. The off-chip incubation mobility-shift kinase assay uses a microfluidic chip to measure the conversion of a fluorescent peptide substrate to a phosphorylated product. The reaction mixture, from a microtiter plate well, is introduced through a capillary sipper onto the chip, where the nonphosphorylated substrate and phosphorylated product are separated by electrophoresis and detected via laser induced fluorescence. […] The phosphorylated product migrates through the chip faster than the non-phosphorylated substrate, and signals from the two forms of the peptide appear as distinct peaks. Caliper's data analysis software (HTSWA) determines peak heights, from which the ratio of product to the peak sum P/(P+S) and percent (%) conversion is calculated. This value is used to compare compound wells to control wells present on the plate, and thereby determine the % inhibition values for the compound. The formula used to calculate % inhibition is as follows, where C100% is the average % conversion of the 100% activity wells and Co% is the average % conversion of the 0% activity wells: (1−(% conversionofsample−C0%)/(C100%−C0%))*100.
Compounds (10 mM stocks in 100% DMSO) are diluted to a final concentration of 5 μM for single point inhibition experiments, and a series dilution of 10, 3, 1, 0.3, 0.1, 0.03, 0.01, 0.003, 0.001, 0.0003, 0.0001, and 0.00003 μM were made for IC50 determination. Generally, 12 μL of enzyme buffer containing purified kinase (various amount; various suppliers), 100 mM HEPES, pH 7.5, 1 mM DTT (Calbiochem, 2333153), 10 mM MgCl2 (Sigma, M-1028) or 10 mM MnCl2 (Sigma, M-1787) (assay specific), and 0.002% Brij-35 (Sigma, B4184) are added to each well. Compound and enzyme are allowed to pre-incubate for 15 minutes. 12 μL of peptide/ATP buffer containing 100 mM HEPES, pH 7.5, 1.5 μM fluorescein-labeled peptide (specific to kinase of interest), ATP (at KM apparent, Sigma, A9187), and 0.002% Brij-35 is then added to each well to initiate the reaction. The final concentration of DMSO in the well is 4%. Generally, reactions are incubated for 1 to 1.5 hours at room temperature to obtain adequate conversion of peptide to phosphorylated product in the linear range of the reaction. Reactions are terminated with the addition of 45 μL of Stop Buffer (containing 20 mM EDTA). Plates are then read on the LabChip 3000 using a 12-sipper LabChip. % conversion values and % inhibition values are obtained as provided and IC50 curves of compounds are generated using GraphPad Prism Version 4 or 5.01, or XLfit Version 4.3.2. When using GraphPad Prism, a nonlinear curve fit using the sigmoidal dose response—variable slope fit was used to graph IC50 curves and determine IC50 values and hillslopes. When using XLfit, Fit Model 205 (4-Parameter Logistic Model) is used to generate and fit the IC50 curve.

Row | SMILES | IC50 (Caliper LabChip assay) [nM] | IC50 [nM]
1 | CC1(Nc2nc(Nc3cc(C(O)C(F)(F)F)ccn3)cc3ccn(CC(N)=O)c(=O)c23)CC1 (centres unmarked) [compound 614] | 66 | 
2 | NC(=O)Cn1ccc2cc(Nc3cnccn3)nc(N[C@H]3C[C@@H](CO)C3)c2c1=O [compound 747] | 17 | 
3 | O=c1[nH]ccc2cc(Nc3ccccn3)nc(N3CCCC3)c12 [compound 279] |  | 1420
4 | COc1cncc(-c2cc3cc[nH]c(=O)c3c(Nc3ccc(C4CCN(CC(=O)N5CCCC5)CC4)c(C)c3)n2)n1 [compound 156] |  | 41
5 | O=c1[nH]ccc2cc(Nc3ccc(C(F)(F)F)cn3)nc(Nc3ccc(N4CCOCC4)cc3)c12 [compound 577] |  | 760
6 | COc1cncc(-c2cc3cc[nH]c(=O)c3c(Nc3ccc(CCN4CC5CNCC5C4)cc3)n2)n1 (centres unmarked) [compound 433] |  | 51
7 | Nc1nc(Nc2cnccn2)cc2ccn(CCO)c(=O)c12 [compound 811] | 651 | 
8 | CC(C)n1ccc2cc(Nc3cnccn3)nc(N[C@H]3CCC[C@H]3O)c2c1=O [compound 980] | 36 | 
9 | COc1cncc(-c2cc3cc[nH]c(=O)c3c(Nc3ccc(C4CCN(C5COC5)CC4)c(C)c3)n2)n1 [compound 164] |  | 287
10 | CCn1ccc2cc(Nc3cc(C(C)(C)O)ccn3)nc(NC3(C)CCC3)c2c1=O [compound 702] | 85 | 
11 | COc1cncc(-c2cc3cc[nH]c(=O)c3c(Nc3ccc(C4CN(CCC#N)C4)cc3)n2)n1 [compound 153] |  | 32
12 | Nc1ncc(-c2cc3cc[nH]c(=O)c3c(N3CCCC3)n2)cn1 [compound 181] |  | 15
13 | CC(C)Nc1nc(Nc2cc(-c3cccnc3)ccn2)cc2cc[nH]c(=O)c12 [compound 1045] | 247 | 
14 | O=c1[nH]ccc2cc(Nc3cnccn3)nc(NC3CCC3)c12 [compound 767] | 3 | 
15 | CC(C)(C)Nc1nc(Nc2cc(C(C)(C)O)c(Cl)cn2)cc2ccn(CCO)c(=O)c12 [compound 728] | 283 | 
16 | CC(C)(C)CNc1nc(-c2cnc(N)nc2)cc2ccn(CCO)c(=O)c12 [compound 911] | 94 | 
17 | CC(C)(C)Nc1nc(Nc2cc(C(F)F)ccn2)cc2ccn(CCO)c(=O)c12 [compound 615] | 9 | 
18 | Cc1nc(N)ncc1-c1cc2cc[nH]c(=O)c2c(Nc2ccc([C@H]3CC[C@H](N4CCOCC4)CC3)cc2)n1 [compound 101] |  | 668
19 | COc1cncc(-c2cc3cc[nH]c(=O)c3c(Nc3ccc(C4CCN(CC5CC5)CC4)c(C)c3)n2)n1 [compound 81] |  | 4
20 | CC(C)(C)Nc1nc(Nc2cc(CN3CC(O)C3)c(F)cn2)cc2ccn(CCO)c(=O)c12 [compound 611] | 251 | 
21 | COc1cncc(-c2cc3cc[nH]c(=O)c3c(Nc3ccc(C4CCN(C(C)CC#N)CC4)c(C)c3)n2)n1 (centres unmarked) [compound 171] |  | 160

Row | SMILES | IC50 (Caliper LabChip assay) [nM] | IC50 [nM]
22 | Cn1ccc2cc(Nc3cnccn3)nc(NC(C)(C)CO)c2c1=O [compound 472] |  | 155
23 | CC(C)(C)Nc1nc(-c2cnc(N)nc2)cc2ccn(C3COC3)c(=O)c12 [compound 921] | 21 | 
24 | Cc1ccnc(Nc2cc3ccn(C)c(=O)c3c(NC(C)(C)C)n2)c1 [compound 506] |  | 129
25 | CC(C)(C)Nc1nc(Nc2cc(CCCCO)ncn2)cc2ccn(CCO)c(=O)c12 [compound 629] | 62 | 
26 | COc1cncc(-c2cc3cc[nH]c(=O)c3c(Nc3ccc(C4CCN(CC5CCCO5)CC4)c(C)c3)n2)n1 (centres unmarked) [compound 77] |  | 115
27 | Cc1ccnc(Nc2cc3ccn(C)c(=O)c3c(Nc3cccc(C(N)=O)c3)n2)c1 [compound 507] |  | 136
28 | COc1cncc(-c2cc3cc[nH]c(=O)c3c(Nc3ccc(C4CCN(CC#N)CC4)c(C)c3)n2)n1 [compound 133] |  | 130
29 | CCn1ccc2cc(Nc3cc(C)ccn3)nc(NC(C)C)c2c1=O [compound 191] |  | 187
30 | CCn1ccc2cc(Nc3cnccn3)nc(NC3CCC(=O)CC3)c2c1=O [compound 969] | 81 | 
31 | COc1cncc(-c2cc3cc[nH]c(=O)c3c(Nc3ccc(CCN4CCNCC4)cc3)n2)n1 [compound 54] |  | 64
32 | Cc1cccnc1Nc1cc2cc[nH]c(=O)c2c(Nc2ccc(N3CCOCC3)cc2)n1 [compound 533] |  | 382
33 | CN(C)[C@H]1CC[C@H](c2ccc(Nc3nc(-c4cncnc4)cc4cc[nH]c(=O)c34)cc2)CC1 [compound 92] |  | 45
34 | CCc1ccnc(Nc2cc3cc[nH]c(=O)c3c(Nc3ccc(CCN4CCN(CC)CC4)cc3)n2)c1 [compound 546] |  | 88
35 | Cc1ccnc(Nc2cc3ccn(C)c(=O)c3c(N[C@H]3CC[C@@H](O)CC3)n2)c1 [compound 326] |  | 32
36 | CNS(=O)(=O)c1ccc(Nc2nc(Nc3cc(C)ccn3)cc3ccn(C)c(=O)c23)cc1 [compound 349] |  | 414
37 | CC(C)(C)Nc1nc(-c2cnc(N)nc2)cc2ccn(CCN3CCOCC3)c(=O)c12 [compound 1033] | 60 | 
38 | CCCNC(=O)c1ccc(Nc2nc(Nc3cnccn3)cc3ccn(C)c(=O)c23)cc1 [compound 366] |  | 323
39 | Cc1cc(Nc2nc(Nc3ccc(Cl)cn3)cc3cc[nH]c(=O)c23)ccc1C1CCN(C2CC2)CC1 [compound 250] |  | 2080
40 | CC(C)(C)Nc1nc(Nc2cc(-c3ccc4cn[nH]c4c3)ccn2)cc2ccn(CCO)c(=O)c12 [compound 850] | 559 | 
41 | CC(C)(C)Nc1nc(Nc2cc(CN3CC(O)C3)ccn2)cc2ccn(CCO)c(=O)c12 [Compound No. 600, 8-(tert-butylamino)-6-(4-((3-hydroxyazetidin-1-yl)methyl)pyridin-2-ylamino)-2-(2-hydroxyethyl)-2,7-naphthyridin-1(2H)-one] | 18.6 | 
42 | CC[C@H](C)Nc1nc(Nc2cc(C)ccn2)cc2cc[nH]c(=O)c12 [compound 283] |  | 443

Row | SMILES | IC50 (Caliper LabChip assay) [nM] | IC50 [nM]
43 | CCN1CCN(C2CCC(c3ccc(Nc4nc(-c5cncnc5)cc5cc[nH]c(=O)c45)cc3)CC2)CC1 (centres unmarked) [compound 108] |  | 116
44 | Cc1ccnc(Nc2cc3cc[nH]c(=O)c3c(NCC(F)(F)F)n2)c1 [compound 516] |  | 152
45 | CCn1ccc2cc(Nc3cnccn3)nc(NS(C)(=O)=O)c2c1=O [compound 745] | 69 | 
46 | Nc1ncc(-c2cc3c(F)c[nH]c(=O)c3c(Nc3ccc(N4CCOCC4)cc3)n2)cn1 [compound 428] |  | 108
47 | CCC(C)(C)Nc1nc(-c2cnc(N)nc2)cc2cc[nH]c(=O)c12 [compound 893] | 43 | 
48 | Cc1ccnc(Nc2cc3cc[nH]c(=O)c3c(NC(C)(C)C)n2)c1 [compound 494] |  | 75
49 | CCn1ccc2cc(Nc3cc(C)ccn3)nc(NC[C@@H]3CC[C@@H](O)C3)c2c1=O [compound 412] |  | 224
50 | CCNC(=O)c1ccc(Nc2nc(Nc3cc(C)ccn3)cc3ccn(C)c(=O)c23)cc1 [compound 380] |  | 379
51 | CC(C)(C)Nc1nc(Nc2cnccn2)cc2c(Cl)cn(CCO)c(=O)c12 [compound 823] | 682 | 
52 | COCC(C)Nc1nc(-c2cnc(N)nc2)cc2cc[nH]c(=O)c12 (centres unmarked) [compound 180] |  | 115
53 | CCn1ccc2cc(Nc3cc(C)ccn3)nc(N[C@@H](C)CO)c2c1=O [compound 359] |  | 25
54 | CC(C)CC(C)Nc1nc(Nc2ccccn2)cc2cc[nH]c(=O)c12 (centres unmarked) [compound 275] |  | 3200
55 | COc1cncc(-c2cc3cc[nH]c(=O)c3c(Nc3ccc(CCN4CCC(F)(F)CC4)cc3)n2)n1 [compound 44] |  | 638
56 | Nc1ncc(-c2cc3ccn(CCO)c(=O)c3c(NC3CC3)n2)cn1 [compound 1035] | 38 | 
57 | COc1cncc(-c2cc3cc[nH]c(=O)c3c(Nc3ccc(C(=O)NCCN4CCCC4)cc3)n2)n1 [compound 82] |  | 14
58 | CC(CO)c1ccnc(Nc2cc3ccn(CCO)c(=O)c3c(NC(C)(C)C)n2)c1 (centres unmarked) [compound 864] | 2 | 
59 | CC(C)(C)Nc1nc(Nc2cnccn2)c(Cl)c2ccn(CCO)c(=O)c12 [compound 837] | 1060 | 
60 | CCN1CCN(CCc2ccc(Nc3nc(Nc4cc(C(=O)O)ccn4)cc4cc[nH]c(=O)c34)cc2)CC1 [compound 586] |  | 226
61 | CC(C)(O)Cn1ccc2cc(Nc3cc(C(C)(C)O)ncn3)nc(NC(C)(C)C)c2c1=O [compound 731] | 109 | 
62 | CCC(O)c1ccnc(Nc2cc3ccn(CCO)c(=O)c3c(NC(C)(C)C)n2)c1 (centres unmarked) [compound 710] | 37 | 
